Numbers after ± are expanded uncertainties.
Details: Liquid, Ebulliometric method (Recirculating still)

C=CC(C)C#N (centres undefined) [2-methyl-3-butenenitrile]
Details | vapor or sublimation pressure [kPa]
297.57 K | 2.701 ± 0.055
304.35 K | 3.664 ± 0.074
309.86 K | 4.608 ± 0.093
315.95 K | 6.064 ± 0.12
318.68 K | 6.731 ± 0.14
321.34 K | 7.521 ± 0.15
324.85 K | 8.987 ± 0.18
327.15 K | 9.9 ± 0.2
331.76 K | 11.75 ± 0.23
335.25 K | 13.48 ± 0.27
339.53 K | 15.75 ± 0.32
343.65 K | 18.68 ± 0.37
352.65 K | 25.35 ± 0.51
356.05 K | 29.21 ± 0.58
359.56 K | 33.21 ± 0.67
364.85 K | 38.55 ± 0.77
369.25 K | 44.68 ± 0.89
373.25 K | 50.01 ± 1
376.09 K | 55.48 ± 1.1
379.75 K | 62.68 ± 1.3
382.83 K | 68.94 ± 1.4
387.65 K | 79.23 ± 1.6
391.95 K | 90.16 ± 1.8
394.25 K | 95.76 ± 1.9

From the NIST ThermoML archive (doi:10.1021/acs.jced.5b00943)
